In patent US20260297081A1, “COMPOUNDS AND METHODS OF TREATING CANCERS” (Cullgen Inc., priority 2023, published 2026) one finds inhibition data, which are given here for 16 compounds.

This experiment has as its target CDK4 (Homo sapiens, UniProt P11802+Q16531). The experiment is described as follows: CDK4 percentage degradation in Calu-1 cells (Table 6). The conditions noted are these: 16 hours; for inhibition at 0.04 µM: 40 nM; for inhibition at 0.2 µM: 200 nM. The format is cell-based. Details: Cells that express cyclin D1-3 and CDK4/6 proteins were treated with heterobifunctional compounds; endogenous in cells; host or cells: Calu-1. Put shortly:
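Calu-1 cells exposed to heterobifunctional compounds at 40 nM or 200 nM for 16 h. Cyclin D1 and CDK4 levels measured by Western blot of RIPA lysates (BCA-normalised loading), bands quantified by densitometry and expressed as percentage degradation.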

CDK4, sequence (P11802 2-303 limits assumed): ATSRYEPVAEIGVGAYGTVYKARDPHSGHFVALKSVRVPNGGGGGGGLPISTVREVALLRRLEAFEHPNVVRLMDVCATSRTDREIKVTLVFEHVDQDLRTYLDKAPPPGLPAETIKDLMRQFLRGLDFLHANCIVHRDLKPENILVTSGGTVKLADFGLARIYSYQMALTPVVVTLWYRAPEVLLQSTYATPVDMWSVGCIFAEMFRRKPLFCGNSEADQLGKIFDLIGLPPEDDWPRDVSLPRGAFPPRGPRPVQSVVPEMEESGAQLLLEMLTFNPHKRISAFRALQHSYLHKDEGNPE
CDK4, sequence (P24385 whole entry partner): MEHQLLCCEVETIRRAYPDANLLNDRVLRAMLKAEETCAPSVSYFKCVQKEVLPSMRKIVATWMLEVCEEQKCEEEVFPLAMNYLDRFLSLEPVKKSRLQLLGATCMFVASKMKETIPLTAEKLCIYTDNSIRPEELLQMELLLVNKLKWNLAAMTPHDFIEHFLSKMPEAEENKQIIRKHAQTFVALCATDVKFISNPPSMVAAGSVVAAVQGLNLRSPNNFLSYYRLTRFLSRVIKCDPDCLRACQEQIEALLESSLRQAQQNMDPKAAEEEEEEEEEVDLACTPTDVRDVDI
CDK4, sequence (Q16531 2-1140 limits assumed): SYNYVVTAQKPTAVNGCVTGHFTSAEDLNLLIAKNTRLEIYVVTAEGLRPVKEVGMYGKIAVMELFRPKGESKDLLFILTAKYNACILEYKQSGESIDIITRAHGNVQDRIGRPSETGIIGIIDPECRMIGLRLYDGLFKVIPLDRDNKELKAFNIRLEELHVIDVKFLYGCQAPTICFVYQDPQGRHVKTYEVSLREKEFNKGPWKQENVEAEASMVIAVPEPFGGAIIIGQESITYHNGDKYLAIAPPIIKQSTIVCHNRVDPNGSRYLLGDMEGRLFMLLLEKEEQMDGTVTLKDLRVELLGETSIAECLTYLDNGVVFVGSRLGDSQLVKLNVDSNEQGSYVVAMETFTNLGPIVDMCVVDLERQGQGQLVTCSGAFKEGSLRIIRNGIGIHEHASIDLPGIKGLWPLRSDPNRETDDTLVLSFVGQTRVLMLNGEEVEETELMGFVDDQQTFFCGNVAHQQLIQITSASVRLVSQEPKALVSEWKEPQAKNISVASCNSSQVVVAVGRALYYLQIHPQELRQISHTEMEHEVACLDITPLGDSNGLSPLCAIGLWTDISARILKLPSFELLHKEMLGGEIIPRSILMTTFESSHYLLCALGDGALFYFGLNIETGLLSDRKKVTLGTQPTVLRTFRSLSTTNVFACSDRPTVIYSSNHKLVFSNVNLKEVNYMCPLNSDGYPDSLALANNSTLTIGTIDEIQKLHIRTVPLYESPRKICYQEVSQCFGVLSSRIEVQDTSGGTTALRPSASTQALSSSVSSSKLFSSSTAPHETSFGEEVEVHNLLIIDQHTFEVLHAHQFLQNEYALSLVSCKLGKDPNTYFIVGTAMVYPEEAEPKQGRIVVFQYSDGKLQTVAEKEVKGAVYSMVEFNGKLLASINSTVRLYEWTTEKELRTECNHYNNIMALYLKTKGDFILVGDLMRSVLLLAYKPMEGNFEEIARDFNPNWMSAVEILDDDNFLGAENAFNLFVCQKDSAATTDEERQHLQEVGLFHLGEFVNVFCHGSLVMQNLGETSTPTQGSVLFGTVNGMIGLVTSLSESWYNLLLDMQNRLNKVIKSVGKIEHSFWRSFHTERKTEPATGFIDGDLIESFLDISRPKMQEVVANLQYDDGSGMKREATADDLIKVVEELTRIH

Take `CNc1ccc(C(=O)Nc2cnn(C)c2)c(NC2CC3(CC(NC(=O)CN4CCN(c5ccc(Nc6ncc7c(C)c(C(C)=O)c(=O)n(C8CCCC8)c7n6)nc5)CC4)C3)C2)n1` (centres unmarked) [CPD-94, 2-((6-(2-(4-(6-((6-Acetyl-8-cyclopentyl-5-methyl-7-oxo-7,8-dihydropyrido[2,3-d]pyrimidin-2-yl)amino)pyridin-3-yl)piperazin-1-yl)acetamido)spiro[3.3]heptan-2-yl)amino)-N-(1-methyl-1H-pyrazol-4-yl)-6-(methylamino)nicotinamide]: the inhibition – broadly, the percentage by which the read-out fell short of the control – at 0.04 µM is less than 30% and the inhibition at 0.2 µM was in the range of 30 to 50%.
The matching figures for `CNc1ccc(C(=O)Nc2cc(C(C)C)n(C)n2)c(NC2CC3(CC(NC(=O)CN4CCN(c5ccc(Nc6ncc7c(C)c(C(C)=O)c(=O)n(C8CCCC8)c7n6)nc5)CC4)C3)C2)n1` (centres unmarked) [CPD-95, 2-((6-(2-(4-(6-((6-Acetyl-8-cyclopentyl-5-methyl-7-oxo-7,8-dihydropyrido[2,3-d]pyrimidin-2-yl)amino)pyridin-3-yl)piperazin-1-yl)acetamido)spiro[3.3]heptan-2-yl)amino)-N-(5-isopropyl-1-methyl-1H-pyrazol-3-yl)-6-(methylamino)nicotinamide]: less than 30% and less than 30%.
In turn, `CNc1ccc(C(=O)Nc2ccc(N(C)C)nn2)c(NC2CC3(CC(NCCN4CCN(c5ccc(Nc6ncc7c(C)c(C(C)=O)c(=O)n(C8CCCC8)c7n6)nc5)CC4)C3)C2)n1` (centres unmarked) [CPD-96, 2-((6-((2-(4-(6-((6-Acetyl-8-cyclopentyl-5-methyl-7-oxo-7,8-dihydropyrido[2,3-d]pyrimidin-2-yl)amino)pyridin-3-yl)piperazin-1-yl)ethyl)amino)spiro[3.3]heptan-2-yl)amino)-N-(6-(dimethylamino)pyridazin-3-yl)-6-(methylamino)nicotinamide] came in with an inhibition at 0.04 µM of less than 30% and an inhibition at 0.2 µM of less than 30%.
Take `CNc1ccc(C(=O)Nc2ccc(N(C)C)nn2)c(NC2CC3(C2)CN(C(=O)CN2CCN(c4ccc(Nc5ncc6c(C)c(C(C)=O)c(=O)n(C7CCCC7)c6n5)nc4)CC2)C3)n1` [CPD-97]: the inhibition at 0.04 µM is 50 to 80% and the inhibition at 0.2 µM was greater than 80%.
The matching figures for `CNc1ccc(C(=O)Nc2cc(C3CC3)n(C)n2)c(NC2CC3(CC(NC(=O)CN4CCN(c5ccc(Nc6ncc7c(C)c(C(C)=O)c(=O)n(C8CCCC8)c7n6)nc5)CC4)C3)C2)n1` (centres unmarked) [CPD-98, 2-((6-(2-(4-(6-((6-Acetyl-8-cyclopentyl-5-methyl-7-oxo-7,8-dihydropyrido[2,3-d]pyrimidin-2-yl)amino)pyridin-3-yl)piperazin-1-yl)acetamido)spiro[3.3]heptan-2-yl)amino)-N-(5-cyclopropyl-1-methyl-1H-pyrazol-3-yl)-6-(methylamino)nicotinamide]: 30 to 50% and 50 to 80%.
Compound `CNc1ccc(C(=O)Nc2cc(C)n(C(C)C)n2)c(NC2CC3(CC(NC(=O)CN4CCN(c5ccc(Nc6ncc7c(C)c(C(C)=O)c(=O)n(C8CCCC8)c7n6)nc5)CC4)C3)C2)n1` (centres unmarked) [CPD-99, 2-((6-(2-(4-(6-((6-Acetyl-8-cyclopentyl-5-methyl-7-oxo-7,8-dihydropyrido[2,3-d]pyrimidin-2-yl)amino)pyridin-3-yl)piperazin-1-yl)acetamido)spiro[3.3]heptan-2-yl)amino)-N-(1-isopropyl-5-methyl-1H-pyrazol-3-yl)-6-(methylamino)nicotinamide] came in with an inhibition at 0.04 µM of 30 to 50% and an inhibition at 0.2 µM of 50 to 80%.
For `CNc1ccc(C(=O)Nc2cc[nH]n2)c(NC2CC3(CC(NC(=O)CN4CCN(c5ccc(Nc6ncc7c(C)c(C(C)=O)c(=O)n(C8CCCC8)c7n6)nc5)CC4)C3)C2)n1` (centres unmarked) [CPD-100, 2-((6-(2-(4-(6-((6-Acetyl-8-cyclopentyl-5-methyl-7-oxo-7,8-dihydropyrido[2,3-d]pyrimidin-2-yl)amino)pyridin-3-yl)piperazin-1-yl)acetamido)spiro[3.3]heptan-2-yl)amino)-6-(methylamino)-N-(1H-pyrazol-3-yl)nicotinamide] the same measures were less than 30% and 50 to 80%.
On to `CNc1ccc(C(=O)Nc2ccc(N(C)C)nn2)c(NCCCC2CN(C(=O)CN3CCN(c4ccc(Nc5ncc6c(C)c(C(C)=O)c(=O)n(C7CCCC7)c6n5)nc4)CC3)C2)n1` [CPD-102, 2-((3-(1-(2-(4-(6-((6-Acetyl-8-cyclopentyl-5-methyl-7-oxo-7,8-dihydropyrido[2,3-d]pyrimidin-2-yl)amino)pyridin-3-yl)piperazin-1-yl)acetyl)azetidin-3-yl)propyl)amino)-N-(6-(dimethylamino)pyridazin-3-yl)-6-(methylamino)nicotinamide], for which the inhibition at 0.04 µM is 50 to 80% and the inhibition at 0.2 µM lay within 50 to 80%.
The compound `CNc1ccc(C(=O)Nc2ccc(N)nn2)c(NCCCCCNC(=O)CN2CCN(c3ccc(Nc4ncc5c(C)c(C(C)=O)c(=O)n(C6CCCC6)c5n4)nc3)CC2)n1` [CPD-104, 2-((5-(2-(4-(6-((6-Acetyl-8-cyclopentyl-5-methyl-7-oxo-7,8-dihydropyrido[2,3-d]pyrimidin-2-yl)amino)pyridin-3-yl)piperazin-1-yl)acetamido)pentyl)amino)-N-(6-aminopyridazin-3-yl)-6-(methylamino)nicotinamide] gave an inhibition at 0.04 µM of less than 30% and an inhibition at 0.2 µM of less than 30%.
Compound `CNc1ccc(C(=O)Nc2ccc(C)nn2)c(NCCCCCNC(=O)CN2CCN(c3ccc(Nc4ncc5c(C)c(C(C)=O)c(=O)n(C6CCCC6)c5n4)nc3)CC2)n1` [CPD-105, 2-((5-(2-(4-(6-((6-Acetyl-8-cyclopentyl-5-methyl-7-oxo-7,8-dihydropyrido[2,3-d]pyrimidin-2-yl)amino)pyridin-3-yl)piperazin-1-yl)acetamido)pentyl)amino)-6-(methylamino)-N-(6-methylpyridazin-3-yl)nicotinamide] returned an inhibition at 0.04 µM of less than 30% and an inhibition at 0.2 µM of 50 to 80%.
The matching figures for `CNc1ccc(C(=O)Nc2ccc(N(C)C)nn2)c(NC2CCN(CCNC(=O)CN3CCN(c4ccc(Nc5ncc6c(C)c(C(C)=O)c(=O)n(C7CCCC7)c6n5)nc4)CC3)C2)n1` (centres unmarked) [CPD-106, 2-((1-(2-(2-(4-(6-((6-Acetyl-8-cyclopentyl-5-methyl-7-oxo-7,8-dihydropyrido[2,3-d]pyrimidin-2-yl)amino)pyridin-3-yl)piperazin-1-yl)acetamido)ethyl)pyrrolidin-3-yl)amino)-N-(6-(dimethylamino)pyridazin-3-yl)-6-(methylamino)nicotinamide]: 30 to 50% and 50 to 80%.
For `CNc1ccc(C(=O)Nc2ccc(N(C)C)nn2)c(NC2CN(CCNC(=O)CN3CCN(c4ccc(Nc5ncc6c(C)c(C(C)=O)c(=O)n(C7CCCC7)c6n5)nc4)CC3)C2)n1` [CPD-107, 2-((1-(2-(2-(4-(6-((6-Acetyl-8-cyclopentyl-5-methyl-7-oxo-7,8-dihydropyrido[2,3-d]pyrimidin-2-yl)amino)pyridin-3-yl)piperazin-1-yl)acetamido)ethyl)azetidin-3-yl)amino)-N-(6-(dimethylamino)pyridazin-3-yl)-6-(methylamino)nicotinamide] the same measures were less than 30% and less than 30%.
For `CNc1ccc(C(=O)Nc2ccc(OC)nn2)c(NCCCCCNC(=O)CN2CCN(c3ccc(Nc4ncc5c(C)c(C(C)=O)c(=O)n(C6CCCC6)c5n4)nc3)CC2)n1` [CPD-108, 2-((5-(2-(4-(6-((6-Acetyl-8-cyclopentyl-5-methyl-7-oxo-7,8-dihydropyrido[2,3-d]pyrimidin-2-yl)amino)pyridin-3-yl)piperazin-1-yl)acetamido)pentyl)amino)-N-(6-methoxypyridazin-3-yl)-6-(methylamino)nicotinamide] the same measures were 30 to 50% and 30 to 50%.
The compound `CNc1ccc(C(=O)Nc2ccc(C)c(C)n2)c(NCCCCCNC(=O)CN2CCN(c3ccc(Nc4ncc5c(C)c(C(C)=O)c(=O)n(C6CCCC6)c5n4)nc3)CC2)n1` [CPD-109, 2-((5-(2-(4-(6-((6-Acetyl-8-cyclopentyl-5-methyl-7-oxo-7,8-dihydropyrido[2,3-d]pyrimidin-2-yl)amino)pyridin-3-yl)piperazin-1-yl)acetamido)pentyl)amino)-N-(5,6-dimethylpyridin-2-yl)-6-(methylamino)nicotinamide] had an inhibition at 0.04 µM of 50 to 80% and an inhibition at 0.2 µM of 50 to 80%.
In turn, `CNc1ccc(NC(=O)c2ccc(NC)nc2NCCCCCNC(=O)CN2CCN(c3ccc(Nc4ncc5c(C)c(C(C)=O)c(=O)n(C6CCCC6)c5n4)nc3)CC2)nn1` [CPD-110, 2-((5-(2-(4-(6-((6-Acetyl-8-cyclopentyl-5-methyl-7-oxo-7,8-dihydropyrido[2,3-d]pyrimidin-2-yl)amino)pyridin-3-yl)piperazin-1-yl)acetamido)pentyl)amino)-6-(methylamino)-N-(6-(methylamino)pyridazin-3-yl)nicotinamide] returned an inhibition at 0.04 µM of less than 30% and an inhibition at 0.2 µM of 50 to 80%.
Turning to `CNc1ccc(C(=O)Nc2ccc(C)c(C(C)C)n2)c(NCCCCCNC(=O)CN2CCN(c3ccc(Nc4ncc5c(C)c(C(C)=O)c(=O)n(C6CCCC6)c5n4)nc3)CC2)n1` [CPD-111, 2-((5-(2-(4-(6-((6-Acetyl-8-cyclopentyl-5-methyl-7-oxo-7,8-dihydropyrido[2,3-d]pyrimidin-2-yl)amino)pyridin-3-yl)piperazin-1-yl)acetamido)pentyl)amino)-N-(6-isopropyl-5-methylpyridin-2-yl)-6-(methylamino)nicotinamide], the inhibition at 0.04 µM was less than 30% and the inhibition at 0.2 µM is 50 to 80%.
